Measured values as given in article PMC3361628 (European Journal of Medicinal Chemistry, 2012).

What was measured:
BoNT/A LC = BoNT/A LC (Clostridium botulinum, UniProt P0DPI0); assay type: biochemical
mice = conditions: mouse, in vivo; cited from earlier work
Trypanosoma rhodesiense = conditions: in vivo, 320 mg/kg; cited from earlier work

Chain of BoNT/A LC (P0DPI0 2-448 limits assumed): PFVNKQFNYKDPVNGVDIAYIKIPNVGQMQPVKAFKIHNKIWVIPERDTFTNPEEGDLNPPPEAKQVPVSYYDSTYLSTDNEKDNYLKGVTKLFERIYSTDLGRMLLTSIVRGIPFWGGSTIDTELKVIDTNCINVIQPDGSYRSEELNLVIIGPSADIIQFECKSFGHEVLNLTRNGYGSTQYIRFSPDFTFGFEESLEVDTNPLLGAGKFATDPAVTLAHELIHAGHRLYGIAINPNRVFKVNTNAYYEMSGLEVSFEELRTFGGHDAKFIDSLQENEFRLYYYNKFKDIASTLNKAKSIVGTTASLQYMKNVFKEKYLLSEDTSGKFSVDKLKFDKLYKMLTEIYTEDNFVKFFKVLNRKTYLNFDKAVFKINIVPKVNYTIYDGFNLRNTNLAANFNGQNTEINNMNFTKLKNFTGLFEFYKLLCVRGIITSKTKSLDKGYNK

SMILES | decrease in inhibitory potency versus 4b (BoNT/A LC) | further results
Clc1ccc2c(NCCNCc3ccc(-c4ccc(-c5ccc(CNCCNc6ccnc7cc(Cl)ccc67)cc5)s4)cc3)ccnc2c1.O=C(O)C(F)(F)F [Compound 4a, 4,4′-[Thiene-2,5-diylbis(4,1-phenylenemethyleneammonioethane-2,1-diylimino)]bis(7-chloroquinolinium) tetra(trifluoroacetate)] | approx. 3 fold | 
Clc1ccc2c(NCCCCNCc3ccc(-c4ccc(-c5ccc(CNCCCCNc6ccnc7cc(Cl)ccc67)cc5)s4)cc3)ccnc2c1.O=C(O)C(F)(F)F [Compound 4c, 4,4′-[thiene-2,5-diylbis(4,1-phenylenemethyleneammoniobutane-4,1-diylimino)]bis(7-chloroquinolinium) tetra(trifluoroacetate)] | approx. 1.8 fold | 
Clc1ccc2c(NCCCCCNCc3ccc(-c4ccc(-c5ccc(CNCCCCCNc6ccnc7cc(Cl)ccc67)cc5)s4)cc3)ccnc2c1.O=C(O)C(F)(F)F [Compound 4d, 4,4′-[thiene-2,5-diylbis(4,1-phenylenemethyleneammoniopentane-5,1-diylimino)]bis(7-chloroquinolinium) tetra(trifluoroacetate)] | approx. 3 fold | 
O=C(NCCCNc1ccnc2cc(Cl)ccc12)c1cc(NC(=O)c2ccc(C(=O)Nc3cc(C(=O)NCCCNc4ccnc5cc(Cl)ccc45)cc(C4=NCCN4)c3)cc2)cc(C2=NCCN2)c1 [II, reference compound] |  | increase in inhibitory potency versus I (BoNT/A LC): approx. 15 fold
Cl.Cl.N=C(N)c1ccc(-c2ccc(-c3ccc(C(=N)N)cc3)s2)cc1 [Compound 1, 4,4′-Thiene-2,5-diyldibenzenecarboximidamide dihydrochloride] |  | toxicity to mice (mice): non-toxic; survival (Trypanosoma rhodesiense): 100%
